IC50 data for 35 compounds are collected here from patent publication US20240360151A1 (SANOFI, priority 2023, published 2024).

pIC50: −log10 of the molar value.

In the test the target is T1, NLRP3 inflammasome (Homo sapiens, UniProt Q96P20).
T1 construct: endogenous in cells; host or cells: THP-1 monocytic cells
T1 sequence (Q96P20 whole entry): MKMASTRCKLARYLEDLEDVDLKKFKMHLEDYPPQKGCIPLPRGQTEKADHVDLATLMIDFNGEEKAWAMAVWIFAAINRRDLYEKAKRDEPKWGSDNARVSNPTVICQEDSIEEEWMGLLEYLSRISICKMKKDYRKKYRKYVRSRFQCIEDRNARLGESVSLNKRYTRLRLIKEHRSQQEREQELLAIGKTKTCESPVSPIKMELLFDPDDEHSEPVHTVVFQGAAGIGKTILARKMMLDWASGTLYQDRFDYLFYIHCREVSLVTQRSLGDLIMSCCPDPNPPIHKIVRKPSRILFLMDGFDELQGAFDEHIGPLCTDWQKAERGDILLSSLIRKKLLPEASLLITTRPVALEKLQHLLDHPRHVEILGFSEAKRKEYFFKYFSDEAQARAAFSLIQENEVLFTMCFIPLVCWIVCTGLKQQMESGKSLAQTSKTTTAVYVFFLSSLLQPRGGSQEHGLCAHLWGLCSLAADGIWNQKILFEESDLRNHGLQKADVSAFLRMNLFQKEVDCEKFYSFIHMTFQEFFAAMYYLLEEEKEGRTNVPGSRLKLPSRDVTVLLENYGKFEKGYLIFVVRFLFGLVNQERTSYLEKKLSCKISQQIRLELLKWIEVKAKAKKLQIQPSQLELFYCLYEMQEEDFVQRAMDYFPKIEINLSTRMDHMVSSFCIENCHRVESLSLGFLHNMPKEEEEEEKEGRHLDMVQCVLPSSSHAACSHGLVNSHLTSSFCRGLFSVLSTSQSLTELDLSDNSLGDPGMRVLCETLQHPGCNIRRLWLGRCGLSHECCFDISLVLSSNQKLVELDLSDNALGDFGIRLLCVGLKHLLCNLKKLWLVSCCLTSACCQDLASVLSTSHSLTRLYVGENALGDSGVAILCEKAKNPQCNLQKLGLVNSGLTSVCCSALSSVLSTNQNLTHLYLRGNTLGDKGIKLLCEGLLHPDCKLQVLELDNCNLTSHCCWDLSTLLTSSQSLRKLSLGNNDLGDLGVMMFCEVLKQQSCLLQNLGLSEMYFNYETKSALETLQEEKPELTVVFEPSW
Put plainly: IL-1β secretion assay (NLRP3 IC50) in LPS-primed, nigericin-activated THP-1 cells, HTRF. It is filed as cell-based. Particulars: monocytic THP-1 cells; LPS 10 ng/mL 3 h priming, then compound + nigericin 10 μM 2 h; relative IC50, 10 concentrations, geometric mean. A digest of the protocol:
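THP-1 cells primed with LPS 10 ng/mL for 3 h at 37° C., then compound (10-point 1:3 dilution, 0.1% DMSO) added with 10 μM nigericin for 2 h. Supernatant IL-1β measured by HTRF; relative IC50 from a 4-parameter logistic fit, reported as geometric mean.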
In general terms: TR-FRET usually uses a lanthanide donor and a delayed reading to cut background.
Broadly, the pIC50 is the negative decadic logarithm of the IC50, by convention in mol/L. On to `Cc1cc(C)c(-c2ccc(N3CCC[C@H](N(C)C)C3)nn2)c(O)c1` [Example 128, 2-[6-[(3S)-3-(dimethylamino)-1-piperidyl]pyridazin-3-yl]-3,5-dimethyl-phenol], for which the pIC50 was 6.11.

For the compound `Cc1cc(C)c(-c2ccc(N3CCC[C@@H](N(C)C)C3)nn2)c(O)c1` [Example 148, 2-[6-[(3R)-3-(dimethylamino)-1-piperidyl]pyridazin-3-yl]-3,5-dimethyl-phenol], the pIC50 is 6.04.

As for `Cc1cc(C)c(O)c(-c2ccc(N3CCO[C@H](CO)C3)nn2)c1` [Example 152, 2-[6-[(2S)-2-(hydroxymethyl)morpholin-4-yl]pyridazin-3-yl]-4,6-dimethylphenol], the pIC50 is 5.22.

Consider `CNC(=O)[C@@H]1CN(c2ccc(-c3c(C)cc(C)cc3O)nn2)CCO1` [Example 166, (2S)-4-[6-(2-hydroxy-4,6-dimethylphenyl)pyridazin-3-yl]-N-methylmorpholine-2-carboxamide], for which the negative logarithm of the IC50 (pIC50) is 5.48.

For `CCN1CCO[C@@H]2CN(c3ccc(-c4c(C)cc(C)cc4O)nn3)C[C@H]21` [Example 168, 2-[6-[(4aR,7aR)-4-ethyl-2,3,4a,5,7,7a-hexahydropyrrolo[3,4-b][1,4]oxazin-6-yl]pyridazin-3-yl]-3,5-dimethylphenol], the pIC50 was 5.47.

With `Cc1cc(C)c(-c2ccc(N3C[C@H](O)CO3)nn2)c(O)c1` [Example 179, (4S)-2-[6-(2-hydroxy-4,6-dimethyl-phenyl)pyridazin-3-yl]isoxazolidin-4-ol], the pIC50 is 6.05.

As for `Cc1cc(C)c(-c2ccc(N3CCO[C@H](C(N)=O)C3)nn2)c(O)c1` [Example 181, (2S)-4-[6-(2-hydroxy-4,6-dimethylphenyl)pyridazin-3-yl]morpholine-2-carboxamide], the pIC50 is 5.86.

As for `CNC(=O)[C@H]1CN(c2ccc(-c3c(C)cc(C)cc3O)nn2)CCO1` [Example 182, (2R)-4-[6-(2-hydroxy-4,6-dimethylphenyl)pyridazin-3-yl]-N-methylmorpholine-2-carboxamide], the pIC50 is 5.78.

`Cc1cc(C)c(-c2ccc(N3CCO[C@@H](C(N)=O)C3)nn2)c(O)c1` [Example 183, (2R)-4-[6-(2-hydroxy-4,6-dimethylphenyl)pyridazin-3-yl]morpholine-2-carboxamide]: the pIC50 was 6.16.

With `Cc1cc(C)c(-c2ccc(N3CCO[C@@H](C(=O)N(C)C)C3)nn2)c(O)c1` [Example 184, (2R)-4-[6-(2-hydroxy-4,6-dimethylphenyl)pyridazin-3-yl]-N,N-dimethylmorpholine-2-carboxamide], the pIC50 was 6.18.

In the case of `Cc1cc(C)c(-c2ccc(N3C[C@@H]4NCCO[C@H]4C3)nn2)c(O)c1` [Example 185, 2-[6-[(4aS,7aS)-3,4,4a,5,7,7a-hexahydro-2H-pyrrolo[3,4-b][1,4]oxazin-6-yl]pyridazin-3-yl]-3,5-dimethylphenol], the negative logarithm of the IC50 (pIC50) is 5.49.

On to `Cc1cc(C)c(-c2nnc(N3CCO[C@H](CO)C3)cc2CO)c(O)c1` [Example 186, 2-[4-(hydroxymethyl)-6-[(2S)-2-(hydroxymethyl)morpholin-4-yl]pyridazin-3-yl]-3,5-dimethyl-phenol], for which the pIC50 is 5.98.

As for `Cc1ccc(O)c(-c2ccc(N3CCO[C@H](CO)C3)nn2)c1C` [Example 191, 2-[6-[(2S)-2-(hydroxymethyl)morpholin-4-yl]pyridazin-3-yl]-3,4-dimethylphenol], the pIC50 was 5.95.

Regarding `CCN1CCOCC2(C1)CN(c1ccc(-c3c(C)cc(C)cc3O)nn1)CCO2` (centres unmarked) [Example 208, 2-[6-(8-ethyl-1,11-dioxa-4,8-diazaspiro[5.6]dodecan-4-yl)pyridazin-3-yl]-3,5-dimethylphenol], the negative logarithm of the IC50 (pIC50) is 6.01.

Regarding `Cc1cc(C)c(-c2ccc(N3CCOc4cnccc43)nn2)c(O)c1` [Example 215, 2-[6-(2,3-dihydropyrido[3,4-b][1,4]oxazin-1-yl)pyridazin-3-yl]-3,5-dimethyl-phenol], the pIC50 is 5.84.

For the compound `CCN1CCN(c2ccc(-c3c(C)cc(C)cc3O)nn2)CC12CCOC2` (centres unmarked) [Example 227, 2-[6-(6-ethyl-2-oxa-6,9-diazaspiro[4.5]decan-9-yl)pyridazin-3-yl]-3,5-dimethylphenol], the pIC50 was 5.92.

`Cc1cc(C)c(-c2ccc(N3CCCc4c3ccnc4O)nn2)c(O)c1` [Example 242, 1-[6-(2-hydroxy-4,6-dimethyl-phenyl)pyridazin-3-yl]-3,4-dihydro-2H-1,6-naphthyridin-5-ol]: the pIC50 was 5.67.

For `Cc1cc(C)c(-c2ccc(N3CCc4cccc(O)c43)nn2)c(O)c1` [Example 253, 1-[6-(2-hydroxy-4,6-dimethyl-phenyl)pyridazin-3-yl]indolin-7-ol], the pIC50 was 5.17.

Take `Cc1cc(C(F)(F)F)cc(O)c1-c1ccc(N2CC[C@H](O)CC2=O)nn1` [Example 286, (4S)-4-hydroxy-1-[6-[2-hydroxy-6-methyl-4-(trifluoromethyl)phenyl]pyridazin-3-yl]piperidin-2-one]: the pIC50 was 6.82.

For `Cc1cc(C(F)(F)F)cc(O)c1-c1ccc(N2CC[C@@H](CO)CC2=O)nn1` [Example 292, (4R)-4-(hydroxymethyl)-1-[6-[2-hydroxy-6-methyl-4-(trifluoromethyl)phenyl]pyridazin-3-yl]piperidin-2-one], the negative-log IC50 (pIC50) was 6.58.

For the compound `Cc1cc(C)c(-c2ccc(N3CCO[C@H](CS)C3)nn2)c(O)c1` [Example 303, 3,5-dimethyl-2-[6-[(2S)-2-(sulfanylmethyl)morpholin-4-yl]pyridazin-3-yl]phenol], the pIC50 was 5.41.

For `Cc1cc(C)c(-c2ccc(N3CCO[C@@H](CS)C3)nn2)c(O)c1` [Example 305, 3,5-dimethyl-2-[6-[(2R)-2-(sulfanylmethyl)morpholin-4-yl]pyridazin-3-yl]phenol], the negative-log IC50 (pIC50) was 5.55.

For `Cc1ccc(-c2nnc(N3CCO[C@H]4CCN(C)C[C@H]43)cc2C(F)F)c(O)c1` [Example 306, 2-[6-[(4aR,8aS)-6-methyl-3,4a,5,7,8,8a-hexahydro-2H-pyrido[4,3-b][1,4]oxazin-4-yl]-4-(difluoromethyl)pyridazin-3-yl]-5-methyl-phenol], the negative-log IC50 (pIC50) was 5.82.

Take `Cc1cc(Cl)cc(O)c1-c1ccc(N2CCO[C@@H]3CCNC[C@@H]32)nn1` [Example 309, 2-[6-[(4aS,8aR)-2,3,4a,5,6,7,8,8a-octahydropyrido[4,3-b][1,4]oxazin-4-yl]pyridazin-3-yl]-5-chloro-3-methyl-phenol]: the pIC50 was 6.60.

On to `Cc1cc(C)c(-c2ccc(N3CCO[C@H]4CCN(C)C[C@H]43)nn2)c(O)c1` [Example 310, 2-[6-[(4aR,8aS)-6-methyl-3,4a,5,7,8,8a-hexahydro-2H-pyrido[4,3-b][1,4]oxazin-4-yl]pyridazin-3-yl]-3,5-dimethyl-phenol], for which the pIC50 was 6.30.

As to `Cc1cc(C)c(-c2ccc(N3CCO[C@@H]4CCNC[C@@H]43)nn2)c(O)c1` [Example 315, 2-[6-[(4aS,8aR)-2,3,4a,5,6,7,8,8a-octahydropyrido[4,3-b][1,4]oxazin-4-yl]pyridazin-3-yl]-3,5-dimethyl-phenol], the pIC50 is 6.29.

With `Cc1cc(C(F)(F)F)cc(O)c1-c1ccc(N2CC[C@@H](O)CC2=O)nn1` [Example 316, (4R)-4-hydroxy-1-[6-[2-hydroxy-6-methyl-4-(trifluoromethyl)phenyl]pyridazin-3-yl]piperidin-2-one], the pIC50 is 6.54.

`CCN1CCOC2(COCCN(c3ccc(-c4c(C)cc(C)cc4O)nn3)C2)C1` (centres unmarked) [Example 317, 2-[6-(4-ethyl-1,11-dioxa-4,8-diazaspiro[5.6]dodecan-8-yl)pyridazin-3-yl]-3,5-dimethyl-phenol]: the pIC50 is 5.52.

As for `Cc1cc(Cl)cc(O)c1-c1ccc(N2CCO[C@H](CF)C2)nn1` [Example 339, 5-chloro-2-[6-[(2S)-2-(fluoromethyl)morpholin-4-yl]pyridazin-3-yl]-3-methyl-phenol], the pIC50 is 6.88.

Consider `CCN1CC[C@H]2OCCN(c3ccc(-c4c(C)cc(C(F)(F)F)cc4O)nn3)[C@@H]2C1` [Example 344, 2-[6-[(4aR,8aR)-6-ethyl-3,4a,5,7,8,8a-hexahydro-2H-pyrido[4,3-b][1,4]oxazin-4-yl]pyridazin-3-yl]-3-methyl-5-(trifluoromethyl)phenol], for which the pIC50 was 6.65.

`OC[C@@H]1CN(c2cc(C(F)F)c(-c3ccc4c(c3O)CCC4)nn2)CCO1` [Example 345, 5-[4-(difluoromethyl)-6-[(2S)-2-(hydroxymethyl)morpholin-4-yl]pyridazin-3-yl]indan-4-ol]: the pIC50 was 6.90.

`CN1CC[C@H]2OCCN(c3cc(C(F)F)c(-c4cccc(F)c4O)nn3)[C@H]2C1` [Example 351, 2-[6-[(4aS,8aR)-6-methyl-3,4a,5,7,8,8a-hexahydro-2H-pyrido[4,3-b][1,4]oxazin-4-yl]-4-(difluoromethyl)pyridazin-3-yl]-6-fluoro-phenol]: the pIC50 is 6.78.

With `Cc1cc(C)c(-c2ccc(N3CCO[C@@H]4CCN(CC(F)(F)F)C[C@@H]43)nn2)c(O)c1` [Example 355, 2-[6-[(4aS,8aR)-6-(2,2,2-trifluoroethyl)-3,4a,5,7,8,8a-hexahydro-2H-pyrido[4,3-b][1,4]oxazin-4-yl]pyridazin-3-yl]-3,5-dimethyl-phenol], the negative-log IC50 (pIC50) was 5.93.

`Cc1cc(C(F)(F)F)cc(O)c1-c1ccc(N2CCOc3c[nH]nc32)nn1` [Example 360, 2-[6-(5,6-dihydro-2H-pyrazolo[4,3-b][1,4]oxazin-7-yl)pyridazin-3-yl]-3-methyl-5-(trifluoromethyl)phenol]: the negative-log IC50 (pIC50) was 6.38.

`Cc1cc(C)c(-c2ccc(N3CCOc4ccncc43)nn2)c(O)c1` [Example 362, 2-[6-(2,3-dihydropyrido[4,3-b][1,4]oxazin-4-yl)pyridazin-3-yl]-3,5-dimethyl-phenol]: the pIC50 is 5.45.
